What was measured:
HCV replicon 1a = test: Cell-based HCV 1a RNA replicon assay; details: Hepatitis C virus, 72 h; Huh-7-derived replicon cells, 3 day incubation, HCV RNA by RT-PCR
Description: (§1) These cells were used to establish a sensitive HCV RNA replication cell-based assay for testing candidate test compounds.
(§2) Huh7 cells that stably maintain a subgenomic HCV replicon were established as previously described (Lohman et al. 1999; WO 02/052015). The cells were seeded into a 96 well cell culture cluster at 1×10^4 cells per well in DMEM complemented with 10% FBS, PenStrep (Life Technologies) and […] Geneticin. Cells were incubated in a 5% CO2 incubator at 37° C. until addition of various concentrations of the test compound.
(§3) The test compound was prepared for use in the assay as follows. The test compound in 100% DMSO was added diluted in assay Medium for a final DMSO concentration of 0.5% and the solution was sonicated for 15 min and filtered through a […] Millipore Filter Unit. Serial dilutions of the test compounds were prepared using Assay Medium (containing 0.5% DMSO).
(§4) Cell culture medium was aspirated from the 96-well plate containing the cells and the appropriate dilution of test compound in assay medium was transferred to independent wells of the cell culture plate which was incubated at 37° with 5% CO2.
(§5) Following a 3 day-incubation period, the cells were washed with PBS and total cellular RNA was extracted with the RNeasy Mini Kit® and Qiashredder® from Qiagen. RNA from each well was eluted in 50 μL of H2O. RNA was quantified by optical density at 260 nm on the Cary 1E® UV-Visible spectrophotometer. The HCV RNA replicon copy number was evaluated by real-time RT-PCR with the Abi Prism® 7700 Sequence Detection System. The TAQMAN E® RT-PCR kit provides a system for the detection and analysis of RNA. Direct detection of the reverse transcription polymerase chain reaction (RT-PCR) product with no downstream processing was accomplished by monitoring the increase in fluorescence of a dye-labeled DNA probe. The nucleotide sequence of both primers and probe was located in the 5′ region of the HCV genome. The replicon copy number was then evaluated using a standard curve made with known amounts of replicon copy (supplemented with 50 ng of wild type Huh-7 RNA) assayed in the same reaction mix. The following thermal cycle parameters were used for the RT-PCR reaction on the ABI Prism® 7700 Sequence Detection System. Conditions were optimized for HCV detection. Quantification is based on the threshold cycle, where the amplification plot crosses a defined fluorescence threshold. Comparison of the threshold cycles provides a highly sensitive measure of relative template concentration in different samples. Monitoring during early cycles, when PCR fidelity is at its highest, provides precise data for accurate quantification. The relative template concentration can be converted to real numbers by using the standard curve of HCV with known number of copy.
(§6) The level of inhibition (% inhibition) of each well containing test compound was calculated with the following equation (CN═HCV Replicon copy number): [formula]
(§7) The calculated % inhibition values were then used to determine EC50, slope factor (n) and maximum inhibition (Imax) by the non-linear regression routine NLIN procedure of SAS using the following equation: [formula]

HCV replicon 1b = test: Cell-based HCV 1b RNA replicon assay; details: Hepatitis C virus, 72 h; Huh-7-derived replicon cells, 3 day incubation, HCV RNA by RT-PCR
Description: as §1, §2, §3, §4, §5, §6, §7

[1] = target: T1, HCV genotype 3a NS3-NS4A protease (UniProt Q81258); test: Inhibition constant (Ki) determination, genotype 3a; assay type: biochemical; details: read-out: Ki HCV genotype 3a
T1 construct: fused on or other part: 28 extra N-terminal residues with a hexahistidine tag and an rTEV cleavage site
T1 sequence (Q81258 1033-1663): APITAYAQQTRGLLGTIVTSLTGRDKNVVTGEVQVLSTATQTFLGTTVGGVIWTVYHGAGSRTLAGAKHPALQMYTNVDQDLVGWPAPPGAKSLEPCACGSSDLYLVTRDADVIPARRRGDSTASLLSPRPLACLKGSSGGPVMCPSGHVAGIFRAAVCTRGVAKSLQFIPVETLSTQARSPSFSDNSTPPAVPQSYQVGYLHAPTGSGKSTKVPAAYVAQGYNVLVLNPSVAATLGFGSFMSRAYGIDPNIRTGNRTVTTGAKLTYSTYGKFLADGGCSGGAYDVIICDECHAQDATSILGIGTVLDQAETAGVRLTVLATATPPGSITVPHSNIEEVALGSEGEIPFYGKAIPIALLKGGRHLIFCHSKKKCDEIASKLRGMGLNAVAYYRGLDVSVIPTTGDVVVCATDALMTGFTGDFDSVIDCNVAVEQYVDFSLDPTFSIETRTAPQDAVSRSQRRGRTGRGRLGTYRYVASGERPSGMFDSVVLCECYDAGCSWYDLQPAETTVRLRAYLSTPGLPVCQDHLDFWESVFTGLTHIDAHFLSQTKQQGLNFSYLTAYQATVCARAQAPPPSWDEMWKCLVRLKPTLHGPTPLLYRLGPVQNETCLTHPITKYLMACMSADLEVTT

[2] = target: T2, HCV genotype 1b NS3-NS4A protease (UniProt P26662); test: Inhibition constant (Ki) determination and mode of inhibition, steady-state velocity, genotype 1b; assay type: biochemical
T2 construct: fused on or other part: 28 extra N-terminal residues with a hexahistidine tag and an rTEV cleavage site
T2 sequence (P26662 1027-1657): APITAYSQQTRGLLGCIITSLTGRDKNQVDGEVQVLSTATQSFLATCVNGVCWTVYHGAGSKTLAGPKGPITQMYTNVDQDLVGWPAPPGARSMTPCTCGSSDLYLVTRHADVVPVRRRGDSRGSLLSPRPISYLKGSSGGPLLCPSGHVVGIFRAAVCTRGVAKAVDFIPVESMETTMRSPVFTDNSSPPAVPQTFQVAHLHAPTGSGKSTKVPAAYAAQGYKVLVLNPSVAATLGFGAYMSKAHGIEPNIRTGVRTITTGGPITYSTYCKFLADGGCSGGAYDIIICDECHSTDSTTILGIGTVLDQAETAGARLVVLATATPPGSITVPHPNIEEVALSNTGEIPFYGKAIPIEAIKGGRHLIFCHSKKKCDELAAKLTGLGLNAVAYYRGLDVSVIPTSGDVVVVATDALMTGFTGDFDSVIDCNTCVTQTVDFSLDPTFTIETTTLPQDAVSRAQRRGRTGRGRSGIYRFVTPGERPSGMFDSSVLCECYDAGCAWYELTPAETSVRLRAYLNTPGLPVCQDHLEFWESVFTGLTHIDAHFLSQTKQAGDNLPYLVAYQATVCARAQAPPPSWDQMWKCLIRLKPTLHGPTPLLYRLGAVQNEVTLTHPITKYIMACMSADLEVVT
Description: (§8) The fluorogenic depsipeptide substrate anthranilyl-D(d)EIVP-Nva[C(O)—O] AMY(3-N2)TW—OH (SEQ ID No.13) was used to assess the mechanism of inhibition and the inhibition constants of the compound (IV) against HCV NS3-NS4A proteases. It was cleaved between the norvaline and the alanine residues. The substrate working solution was prepared in DMSO at the concentration of 200 μM from the substrate stock solution (2 mM in DMSO stored at —20° C.). The final substrate concentration in the assay varied from 0.25 to 8 μM. The inhibition constant (Ki) for compound (IV) was determined using a steady-state velocity method (Morrisson et al. 1985). The protease activity was determined by monitoring the fluorescence change associated with the cleavage of the internally quenched fluorogenic substrate using a SLM-AMINCO® 8100 spectrofluorometer ([…]). The cleavage reaction was monitored in the presence of 0.25 to 8 μM of substrate, 0.3 nM of HCV 1a or 1b NS3-NS4A heterodimer protein and various concentrations of the test compound IV in 50 mM Tris-HCl, pH 8.0, 0.25M sodium citrate, 0.01% n-dodecyl-β-D-maltoside, 1 mM TCEP. The steady-state analysis of inhibition of the HCV genotype 1a and 1b NS3-NS4A heterodimer proteases were performed using the Dixon and Cornish-Bowden graphical methods. […]

[3] = target: T3, HCV genotype 1a NS3-NS4A protease (Hepatitis C virus genotype 1a, UniProt P27958); test: Inhibition constant (Ki) determination and mode of inhibition, steady-state velocity, genotype 1a; assay type: biochemical
T3 construct: Co-purification of mature NS3 and NS4A protein complex was verified by Western blot analysis; made in house; host or cells: Sf21 insect cells, recombinant baculovirus (pFastBac HTa)
T3 sequence (P27958 1027-1657): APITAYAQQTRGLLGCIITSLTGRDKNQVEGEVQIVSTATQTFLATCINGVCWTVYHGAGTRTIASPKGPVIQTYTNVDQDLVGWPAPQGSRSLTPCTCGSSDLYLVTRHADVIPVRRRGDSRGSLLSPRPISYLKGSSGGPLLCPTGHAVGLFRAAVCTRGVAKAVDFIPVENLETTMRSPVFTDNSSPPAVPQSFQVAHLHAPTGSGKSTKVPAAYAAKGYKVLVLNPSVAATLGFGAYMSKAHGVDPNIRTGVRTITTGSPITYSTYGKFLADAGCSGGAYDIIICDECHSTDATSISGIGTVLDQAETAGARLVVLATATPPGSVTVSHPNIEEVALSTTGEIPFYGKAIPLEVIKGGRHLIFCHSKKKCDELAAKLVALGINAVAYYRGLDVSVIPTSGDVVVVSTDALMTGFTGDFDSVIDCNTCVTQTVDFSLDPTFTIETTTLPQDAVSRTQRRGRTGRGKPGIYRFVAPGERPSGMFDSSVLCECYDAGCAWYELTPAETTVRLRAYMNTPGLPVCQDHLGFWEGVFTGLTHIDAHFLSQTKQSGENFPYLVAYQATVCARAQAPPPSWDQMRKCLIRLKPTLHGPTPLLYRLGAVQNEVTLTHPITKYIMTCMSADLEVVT
T3 sequence (P27958 1658-1711): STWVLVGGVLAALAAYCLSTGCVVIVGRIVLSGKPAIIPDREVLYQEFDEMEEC
Description: as §8

[4] = Dixon and Cornish-Bowden plots, GraFit

COc1ccc2c(O[C@@H]3C[C@H]4C(=O)N[C@]5(C(=O)O)CC5/C=C\CCCCC[C@H](NC(=O)OC(C)(C)C)C(=O)N4C3)cc(-c3csc(NC(C)=O)n3)nc2c1 (some centres unmarked) [III]
EC50 (HCV replicon 1a): 4.5 nM
EC50 (HCV replicon 1b): 4.7 nM

COc1ccc2c(O[C@@H]3C[C@H]4C(=O)N[C@]5(C(=O)O)CC5/C=C\CCCCC[C@H](NC(=O)OC(C)(C)C)C(=O)N4C3)cc(-c3ccccc3)nc2c1 (some centres unmarked) [II]
EC50 (HCV replicon 1a): 34 nM
EC50 (HCV replicon 1b): 27 nM

COc1ccc2c(O[C@@H]3C[C@H]4C(=O)N[C@]5(C(=O)O)CC5/C=C\CCCCC[C@H](NC(=O)OC5CCCC5)C(=O)N4C3)cc(-c3csc(NC(C)C)n3)nc2c1 (some centres unmarked) [IV]
Ki [1]: 90 nM
EC50 (HCV replicon 1a): 2.1 nM
mode of inhibition, HCV genotype 1b NS3-NS4A protease [2, 4]: competitive
Ki ([2]; read-out: Ki HCV genotype 1b NS3-NS4A protease, steady-state velocity analysis): 0.66 nM
EC50 (HCV replicon 1b): 1 nM
Ki [3]: 0.3 nM
mode of inhibition, HCV genotype 1a NS3-NS4A protease [3, 4]: competitive
